# Laboratory results reported in a melting point compilation (Tetko et al.; mined from patent text by program, amines drawn as free bases though some values may be those of a salt).
row,Compound,melting point [°C]
1,Cc1cc(SC(C)c2ccc3cn(-c4ccc(C(F)(F)F)cc4)nc3c2)ccc1OC(C)(C)C(=O)O (racemic),114 to 116
2,CCC(=O)Nc1cccc2c1C(=O)c1c-2n[nH]c1-c1ccc(OC)cc1,287
3,O=C(O)/C(=C/c1cnc(-c2ccccc2)n1Cc1ccccc1Cl)Cc1ccccc1,211 to 213
4,C(#CCOCC#CCCn1cnc2cnc3ccccc3c21)CCn1cnc2cnc3ccccc3c21,124 to 126
5,CC(C)Cn1c(CNC(=O)OC(C)(C)C)c(-c2ccccc2)c2cc(/C=C/C(N)=O)ccc2c1=O,146 to 147
6,CNS(=O)(=O)c1ccc(Oc2ccc(Cl)cc2)cc1,80 to 83
7,CNC(=O)c1ccccc1Nc1nc(Nc2ccc3c(c2)N(C)C(=O)CCC3)ncc1Cl,292 to 294
8,O=C(/C=C/c1ccc(C(F)(F)F)cc1-c1cccnc1)Nc1ccc2[nH]ccc2c1,196 to 197
9,CN(c1ccncc1)n1cccc1CO,145 to 148
10,C=CCOC(=O)C(C)(C)Cc1c(SC(C)(C)C)c2cc(O)ccc2n1Cc1ccc(Cl)cc1,150 to 151
11,NC(=O)CNc1ncccc1NC(=O)c1ccccc1,194 to 195
12,CC(C)Oc1ccc(-c2ccc(C#N)cc2)cc1C=O,94 to 96
13,CC(=O)Nc1ccn(C2OC(COC(C)=O)CC2OC(C)=O)c(=O)n1 (configuration not stated),174 to 177
14,Cc1cccc(COc2cccc(OCc3coc(-c4ccc(F)cc4)n3)c2)c1C(=O)O,159 to 160
15,Cc1ccc(-c2c(CN3C(=O)c4ccccc4C3=O)n(CC(C)C)c(=O)c3ccc(OCc4ccccc4)cc23)cc1,158 to 159
16,Oc1ccc(-c2cc3cc(O)ccc3o2)c(-c2ccc(OCc3ccccc3)cc2)c1,186 to 187
17,Nc1cc(Cl)cnc1Oc1ccc(O)cc1,174
18,CCCc1ccc2nc(C(F)(F)F)c(S(N)(=O)=O)n2n1,151 to 152
19,Cc1ccc2ccccc2c1N(C(=O)CO)C1CCOC1=O (configuration not stated),191 to 195
20,COc1ccc(Cn2cnc3c(-c4ccco4)ncnc32)cc1,175 to 176
21,CC(=O)OCC1OC(n2cnc3c(O)nc(Nc4ccccc4)nc32)C(OC(C)=O)C1OC(C)=O (configuration not stated),234 to 235
22,CSc1cc2cc(-c3ccccc3)ccc2cc1O,129 to 130
23,CC(C)CN1C(=O)C2CC2(c2ccc(N)cc2)C1=O (configuration not stated),100 to 101
24,CN1C(C)(C)CC(O)(CN2C(=O)C3(COc4cc5c(cc43)OCO5)c3ccccc32)CC1(C)C (configuration not stated),210 to 214
25,CC(C)Cc1nc2ccc(C(c3cccc(Cl)c3)n3ccnc3)cc2[nH]c1=O (configuration not stated),215
26,CCCCC12CCC3C4=C(CCC3C1CCC2O)CC(OC)=CC4 (configuration not stated),135 to 139

row,Compound,melting point [°C]
1,CC(C)(C)c1ccc(-c2nnc(N)nc2N)cc1,275 to 276
2,CCCCc1ccc(CCc2cc3c(s2)NC(=S)CN=C3c2ccccc2Cl)cc1,152 to 154
3,CCOC(=O)c1ncoc1-c1ccc([N+](=O)[O-])cc1OC,106 to 107
4,N#CC(CC(=O)c1ccc(Cl)cc1)C(N)=O (configuration not stated),160 to 161
5,CC1C(=O)N(c2ccc(Cc3ccccc3)cc2)C(=S)N1c1ccccc1 (configuration not stated),123 to 125
6,CN1C(=O)C(c2ccc(OC(F)F)cc2)(c2cccc(CCCC#N)c2)N=C1N (configuration not stated),75
7,CC1(C)Oc2ccc(C(=O)CO)cc2[C@H](NC(=O)c2ccc(F)c(Cl)c2)[C@@H]1O,200
8,CCOC(=O)N1CC[C@H](O)[C@@H]1C(c1ccccc1)c1ccccc1 (relative stereo),104 to 105
9,CC(C(=O)c1ccncc1)c1ccc(C2=CCCCC2)cc1 (configuration not stated),88 to 90
10,Cc1cc(CC(O)CN2C(=O)CCC2=O)cc(C(C)(C)C)c1O (configuration not stated),218
11,CNc1cnn(-c2ccc(F)cc2)c(=O)c1-c1cccc(C(F)(F)F)c1,161 to 162
12,O=C1Cc2ccc([N+](=O)[O-])cc21,126 to 127
13,CC(=O)N1CCN=C1Nc1cccc2c1CCC2,180 to 182
14,O=C(NC(c1ccccc1)C(O)c1ccccc1)OCc1ccccc1 (configuration not stated),152
15,O=C1CCCC2=C1C(c1ccc(F)c(Cl)c1)C1=C(CCS1)N2 (configuration not stated),> 250
16,COc1ccc(-c2cc(S(N)(=O)=O)sc2-c2ccc(OC)c(S(N)(=O)=O)c2)cc1S(N)(=O)=O,242 to 244
17,CNc1nc2c(N)ncnc2n1C1OC(CO)C(O)C1O (configuration not stated),> 250
18,COc1ccc(/C=C/C(=O)Nc2ccccc2C(N)=O)cc1OC,184 to 186
19,CCN(Cc1ccc(F)nc1)C(=S)NC,123 to 124
20,CC(C)(O)c1ccc(-c2ccc(N3C[C@H](Cn4ccnn4)OC3=O)cc2F)cn1,180
21,O=C1CCCC(=O)C1=CC=Cc1ccccc1,116 to 118
22,CC(=O)C1CCC2C3CCC4CC(O)C(N5CCOC(C)(C)C5)CC4(C)C3C(=O)CC12C (configuration not stated),163
23,O=C(CNC(=O)C1CCCCC1)c1ccco1,110 to 111
24,Cc1ncnn1-c1cc(F)ccc1C#N,120 to 121
25,CC(C)(C)OC(=O)NCC(Cl)c1ccsc1 (configuration not stated),63 to 65
26,Cc1cc(C2OC(=O)NC2=O)c(C)o1 (configuration not stated),144 to 145

row,Compound,melting point [°C]
1,CCOC(=O)CC1(N2C(=O)c3ccccc3C2=O)C(=O)N(c2ccccc2)c2ccccc21 (configuration not stated),148 to 149
2,CCC(=S)NC[C@H]1CN(c2ccc(N3CCN(C(=O)COc4ccccc4)CC3)c(F)c2)C(=O)O1,171 to 172
3,Cc1c(-c2ccc([N+](=O)[O-])o2)nc(N)n2c(C)nnc12,290
4,CCOc1ccc2c(c1)C(O)Cc1c(Cl)cccc1S2 (configuration not stated),88 to 90
5,C=C(C)C(=O)OCCOCCOC(=O)c1ccc(O)c(Cl)c1,57 to 58.5
6,O=c1cnc(-c2ccc(F)c(Br)c2)nn1Cc1ccc(Cl)nc1,138 to 140
7,CCOC(=O)c1cc2c(cn1)[nH]c1ccc(C(C)=O)cc12,290 to 305
8,CC(C)(C)c1nnc2ccc(OCCCN3CCC(OC(c4ccccc4)c4ccccc4)CC3)nn12,125 to 127
9,COc1cc(C(=O)CC(=O)C(C)(C)C)cc(OC)c1OC,67.3 to 68.4
10,CNC(Cc1ccc2c(c1)Nc1nccnc1S2)=NC#N,233 to 234
11,CC1(C)CC(=O)c2c(ncc3[nH]c4cc(F)ccc4c23)C1,271 to 273
12,Cc1nc(Cc2ccc([N+](=O)[O-])cc2)cs1,118 to 119
13,O=C(NC(Cc1ccccc1)C(=O)O)c1ccccc1 (configuration not stated),183 to 184
14,CCOC(=O)c1c(N)n(C)c2cc(Cl)ccc12,155 to 157
15,Nc1nc(NCCO)c2ncn(C3C=CC(CO)C3)c2n1 (configuration not stated),150 to 152
16,FC(F)(F)c1cc(Cl)c(-n2ncc(-c3ncc[nH]3)n2)c(Cl)c1,282 to 283
17,COc1cc(/C=C(\C)C(=O)O)c2cccc(C(C)C)c2c1O,195 to 196
18,CCCCCS(=O)(=O)NC(=O)OCc1cc(OC(C)C)nn1Cc1ccc(Cl)cc1Cl,126 to 128
19,CC1(C)CC(=O)N(C(=O)OCc2ccccc2)CC(C)(C)N1,86 to 88
20,O=C(Nc1ccc2ccc(Cl)nc2n1)c1ccc2ccccc2n1,260
21,N=S1C(n2c(S)nnc2-c2ccc(O)cc2)=CC=C1[N+](=O)[O-] (configuration not stated),275 to 276
22,O=c1n(C2CCOC2)cc(-c2ccncc2)n1-c1ccc(F)cc1 (configuration not stated),132 to 134
23,CC(C)Cc1nc2ccc(Br)cc2c(-c2ccccc2)c1CN1C(=O)c2ccccc2C1=O,164 to 165
24,CN1CCC(C2(O)c3ccccc3Sc3cc(F)ccc32)CC1 (configuration not stated),120 to 130
25,c1c(NC23CC4CC(CC(C4)C2)C3)nc(N2CCCC2)nc1N1CCNCC1,152 to 156
26,O=C(NCCc1c[nH]c2ccc(C(=O)Nc3ccccc3)cc12)OCc1ccccc1,136 to 138

row,Compound,melting point [°C]
1,N#CC1(c2ccccc2)C2CC3CC(C2)CC1C3 (configuration not stated),120 to 122
2,N#CCNC1(c2ccccc2Cl)C(=O)Nc2ccc(Cl)cc21 (configuration not stated),240 to 241
3,COc1ccc2c(c1)NC(c1ccccc1)CO2 (configuration not stated),79 to 81
4,CCn1ncc2c(NCC3CCCCC3)c3cc(NC(C)=O)ccc3nc21,277 to 278
5,CCn1c(N)c(C(N)=O)c(=O)c2cnc(Nc3ccc(NCC(=O)C4CC4)cc3)nc21,248
6,N#CCC(O)(c1ccccc1)c1ccccc1,136 to 138
7,COCN(c1noc(C)c1C)S(=O)(=O)C1(Br)C=CC=CC1 (configuration not stated),71 to 72
8,NCCCP(=O)(O)C1SCCS1,272 to 274
9,Clc1ccc(-c2nsc3cc(OCCCCBr)ccc23)cc1,68 to 69
10,COCc1cc(O)c2cccc(OC)c2n1,193 to 195
11,CN1C=C2C=C(S)N=CN2N1,> 300
12,CON=C(C(=O)OC)c1ccccc1COc1ccc2c(c1)OCC2=NOC,108 to 110
13,O=S(=O)(F)c1ccc2ccccc2c1,85 to 86
14,CCOc1ccc(OCC(=O)OC(C)(C)C)c2c1C(=O)N(CSc1nnnn1-c1ccccc1)S2(=O)=O,110 to 112
15,CCCCNc1c(C(=O)OCC)c(C)nc(S)c1[N+](=O)[O-],140 to 142
16,Cc1ccccc1CNC[C@@H]1C[C@@H](S)CN1S(=O)(=O)c1ccc2ccccc2c1,122
17,O=C(O)c1ccc2cc(Cl)ccn2c1=O,> 250
18,CCOC(=O)CN(CC1CC2c3cccc4[nH]cc(c34)CC2N(C)C1)C(=O)NC(C)C (configuration not stated),118 to 120
19,Cc1ccc(-n2c(-c3sc(Nc4ccccc4)nc3-c3ccccc3)nc3ccccc3c2=O)cc1,225 to 228
20,NC(=O)N(O)CCn1ccc2ccccc21,57 to 60
21,Oc1cccc([C@H]2CC[C@@H](c3ccccc3)N2)c1 (racemic),151
22,CCOC(=O)COc1cc(F)c(C)cc1C(=S)NCc1ccc(Br)cc1F,98 to 100
23,COC(=O)[C@H]1CC[C@H](N2CCN(c3ccc(C4CCN(C(=O)C(F)(F)F)CC4)cc3)C2=O)CC1,183 to 185
24,CCCCOC(=O)NC(=O)C1c2ccccc2Sc2ccccc21,151 to 154
